Among the data in patent publication US12091425B2 (AMGEN INC., priority 2016, dated 2024) are IC50 values, retold here.

Experiment [1] has as its target T1, Mcl-1/Bim interaction, recombinant human Mcl-1 (171-327) (Homo sapiens, UniProt Q07820).
T1 construct: made in house
Kind of experiment: Cell free Mcl-1: Bim Affinity Assay (Mcl-1 HTRF). The format is binding. The settings on record: TR-FRET, 0.1 nM Mcl-1 (171-327), 0.05 nM biotin-Bim (51-76). In outline: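 TR-FRET competition assay with biotinylated human Bim peptide (residues 51-76); reaction plates incubated overnight before reading. IC50 values came from duplicate data fitted to a four-parameter sigmoidal competition curve.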

Experiment [2] relates to OPM-2 human multiple myeloma cell line. As to the kind of experiment: Cell Viability Assay (OPM-2 10 FBS). The format is cell-based. Conditions: Homo sapiens, OPM-2, 16 h, OPM-2 cells, 16 h, CellTiter-Glo. In outline:
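ATP-based luminescence (CellTiter-Glo) measured after a 16 h compound treatment of OPM-2 cells seeded at 3000 cells/well in 10% FBS medium. IC50 values derived by 4-parameter logistic fitting of serial dilutions.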

T1 sequence (Q07820 171-327): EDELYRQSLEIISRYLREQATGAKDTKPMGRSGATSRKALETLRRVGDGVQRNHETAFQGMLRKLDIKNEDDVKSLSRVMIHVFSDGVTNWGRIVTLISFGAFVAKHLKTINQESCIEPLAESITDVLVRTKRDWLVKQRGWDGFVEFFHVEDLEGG

For the compound `C[C@@H]1[C@@H](C)C/C=C/[C@H](OCC(=O)NC2COC2)[C@@H]2CC[C@H]2CN2C[C@@]3(CCCc4cc(Cl)ccc43)COc3ccc(cc32)C(=O)NS1(=O)=O` [Example 303, 2-(((1S,3′R,6′R,7′S,8′E,11′S,12′R)-6-chloro-11′,12′-dimethyl-13′,13′-dioxido-15′-oxo-3,4-dihydro-2H-spiro[naphthalene-1,22′-[20]oxa[13]thia[1,14]diazatetracyclo[14.7.2.0^3,6.0^19,24]pentacosa [8,16,18,24]tetraen]-7′-yl)oxy)-N-3-oxetanylacetamide], the IC50 in experiment [1] was found to be 0.2 nM; in experiment [2] it was 567 nM.
For `C[C@@H]1[C@@H](C)C/C=C/[C@H](OCC(=O)N2CC(O)C2)[C@@H]2CC[C@H]2CN2C[C@@]3(CCCc4cc(Cl)ccc43)COc3ccc(cc32)C(=O)NS1(=O)=O` [Example 304, (1S,3′R,6′R,7′S,8′E,11′S,12′R)-6-chloro-7′-(2-(3-hydroxy-1-azetidinyl)-2-oxoethoxy)-11′,12′-dimethyl-3,4-dihydro-2H,15′H-spiro[naphthalene-1,22′-[20]oxa[13]thia[1,14]diazatetracyclo[14.7.2.0^3,6.0^19,24]pentacosa [8,16,18,24]tetraen]-15′-one 13′,13′-dioxide] the same measures were 0.151 nM and 2280 nM.
In the case of `C[C@@H]1[C@@H](C)C/C=C/[C@H](OCC(=O)N2CC(C)(O)C2)[C@@H]2CC[C@H]2CN2C[C@@]3(CCCc4cc(Cl)ccc43)COc3ccc(cc32)C(=O)NS1(=O)=O` [Example 305, (1S,3′R,6′R,7′S,8′E,11′S,12′R)-6-chloro-7′-(2-(3-hydroxy-3-methyl-1-azetidinyl)-2-oxoethoxy)-11′,12′-dimethyl-3,4-dihydro-2H,15′H-spiro[naphthalene-1,22′-[20]oxa[13]thia[1,14]diazatetracyclo[14.7.2.0^3,6.0^19,24]pentacosa [8,16,18,24]tetraen]-15′-one 13′,13′-dioxide], the figures for the IC50 in experiment [1] and in experiment [2] were 0.177 nM and 998 nM, respectively.
Consider `C[C@@H]1[C@@H](C)C/C=C/[C@H](OCC(=O)N2CC(O)(C(F)(F)F)C2)[C@@H]2CC[C@H]2CN2C[C@@]3(CCCc4cc(Cl)ccc43)COc3ccc(cc32)C(=O)NS1(=O)=O` [Example 306, (1S,3′R,6′R,7′S,8′E,11′S,12′R)-6-chloro-7′-(2-(3-hydroxy-3-(trifluoromethyl)-1-azetidinyl)-2-oxoethoxy)-11′,12′-dimethyl-3,4-dihydro-2H,15′H-spiro[naphthalene-1,22′-[20]oxa[13]thia[1,14]diazatetracyclo[14.7.2.0^3,6.0^19,24]pentacosa [8,16,18,24]tetraen]-15′-one 13′,13′-dioxide], for which the IC50 in experiment [1] worked out at 1.2 nM; in experiment [2] it was 1140 nM.
Regarding `COC1CN(C(=O)CO[C@H]2/C=C/C[C@H](C)[C@@H](C)S(=O)(=O)NC(=O)c3ccc4c(c3)N(C[C@@H]3CC[C@H]32)C[C@@]2(CCCc3cc(Cl)ccc32)CO4)C1` [Example 307, (1S,3′R,6′R,7′S,8′E,11′S,12′R)-6-chloro-7′-(2-(3-methoxy-1-azetidinyl)-2-oxoethoxy)-11′,12′-dimethyl-3,4-dihydro-2H,15′H-spiro[naphthalene-1,22′-[20]oxa[13]thia[1,14]diazatetracyclo[14.7.2.0^3,6.0^19,24]pentacosa [8,16,18,24]tetraen]-15′-one 13′,13′-dioxide], the values for the IC50 in experiment [1] and in experiment [2] were 0.127 nM and 302 nM, respectively.
For `C[C@@H]1[C@@H](C)C/C=C/[C@H](OCC(=O)N2CC(F)(F)C2)[C@@H]2CC[C@H]2CN2C[C@@]3(CCCc4cc(Cl)ccc43)COc3ccc(cc32)C(=O)NS1(=O)=O` [Example 308, (1S,3′R,6′R,7′S,8′E,11′S,12′R)-6-chloro-7′-(2-(3,3-difluoro-1-azetidinyl)-2-oxoethoxy)-11′,12′-dimethyl-3,4-dihydro-2H,15′H-spiro[naphthalene-1,22′-[20]oxa[13]thia[1,14]diazatetracyclo[14.7.2.0^3,6.0^19,24]pentacosa [8,16,18,24]tetraen]-15′-one 13′,13′-dioxide] the same measures were 0.382 nM and 214 nM.
Take `C[C@@H]1[C@@H](C)C/C=C/[C@H](OCC(=O)N2CC(N3CCCC3)C2)[C@@H]2CC[C@H]2CN2C[C@@]3(CCCc4cc(Cl)ccc43)COc3ccc(cc32)C(=O)NS1(=O)=O` [Example 309, (1S,3′R,6′R,7′S,8′E,11′S,12′R)-6-chloro-11′,12′-dimethyl-7′-(2-oxo-2-(3-(1-pyrrolidinyl)-1-azetidinyl)ethoxy)-3,4-dihydro-2H,15′H-spiro[naphthalene-1,22′-[20]oxa[13]thia[1,14]diazatetracyclo[14.7.2.0^3,6.0^19,24]pentacosa [8,16,18,24]tetraen]-15′-one 13′,13′-dioxide]: the IC50 turned out to be 0.0805 nM in experiment [1] and 414 nM in experiment [2].
On to `C[C@@H]1[C@@H](C)C/C=C/[C@H](OCC(=O)N2CC[C@H](O)C2)[C@@H]2CC[C@H]2CN2C[C@@]3(CCCc4cc(Cl)ccc43)COc3ccc(cc32)C(=O)NS1(=O)=O` [Example 310, (1S,3′R,6′R,7′S,8′E,11′S,12′R)-6-chloro-7′-(2-((3S)-3-hydroxy-1-pyrrolidinyl)-2-oxoethoxy)-11′,12′-dimethyl-3,4-dihydro-2H,15′H-spiro[naphthalene-1,22′-[20]oxa[13]thia[1,14]diazatetracyclo[14.7.2.0^3,6.0^19,24]pentacosa [8,16,18,24]tetraen]-15′-one 13′,13′-dioxide], for which the IC50 in experiment [1] turned out to be 0.109 nM; in experiment [2] it was 792 nM.
Take `C[C@@H]1[C@@H](C)C/C=C/[C@H](OCC(=O)N2CC[C@@H](O)C2)[C@@H]2CC[C@H]2CN2C[C@@]3(CCCc4cc(Cl)ccc43)COc3ccc(cc32)C(=O)NS1(=O)=O` [Example 311, (1S,3′R,6′R,7′S,8′E,11′S,12′R)-6-chloro-7′-(2-((3R)-3-hydroxy-1-pyrrolidinyl)-2-oxoethoxy)-11′,12′-dimethyl-3,4-dihydro-2H,15′H-spiro[naphthalene-1,22′-[20]oxa[13]thia[1,14]diazatetracyclo[14.7.2.0^3,6.0^19,24]pentacosa [8,16,18,24]tetraen]-15′-one 13′,13′-dioxide]: the IC50 was found to be 0.138 nM in experiment [1] and 1400 nM in experiment [2].
For `C[C@@H]1[C@@H](C)C/C=C/[C@H](OCC(=O)N2CCC(O)CC2)[C@@H]2CC[C@H]2CN2C[C@@]3(CCCc4cc(Cl)ccc43)COc3ccc(cc32)C(=O)NS1(=O)=O` [Example 312, (1S,3′R,6′R,7′S,8′E,11′S,12′R)-6-chloro-7′-(2-(4-hydroxy-1-piperidinyl)-2-oxoethoxy)-11′,12′-dimethyl-3,4-dihydro-2H,15′H-spiro[naphthalene-1,22′-[20]oxa[13]thia[1,14]diazatetracyclo[14.7.2.0^3,6.0^19,24]pentacosa [8,16,18,24]tetraen]-15′-one 13′,13′-dioxide], the figures for the IC50 in experiment [1] and in experiment [2] were 0.153 nM and 1000 nM, respectively.
For `C[C@@H]1[C@@H](C)C/C=C/[C@H](OCC(=O)N2CCOCC2)[C@@H]2CC[C@H]2CN2C[C@@]3(CCCc4cc(Cl)ccc43)COc3ccc(cc32)C(=O)NS1(=O)=O` [Example 313, (1S,3′R,6′R,7′S,8′E,11′S,12′R)-6-chloro-11′,12′-dimethyl-7′-(2-(4-morpholinyl)-2-oxoethoxy)-3,4-dihydro-2H,15′H-spiro[naphthalene-1,22′-[20]oxa[13]thia[1,14]diazatetracyclo[14.7.2.0^3,6.0^19,24]pentacos [8,16,18,24]tetraen]-15′-one 13′,13′-dioxide], in that order: 0.185 nM and 220 nM.
Regarding `C[C@@H]1[C@@H](C)C/C=C/[C@H](OCC(=O)N2CCNC(=O)C2)[C@@H]2CC[C@H]2CN2C[C@@]3(CCCc4cc(Cl)ccc43)COc3ccc(cc32)C(=O)NS1(=O)=O` [Example 314, (1S,3′R,6′R,7′S,8′E,11′S,12′R)-6-chloro-11′,12′-dimethyl-7′-(2-oxo-2-(3-oxo-1-piperazinyl)ethoxy)-3,4-dihydro-2H,15′H-spiro[naphthalene-1,22′-[20]oxa[13]thia[1,14]diazatetracyclo[14.7.2.0^3,6.0^19,24]pentacosa [8,16,18,24]tetraen]-15′-one 13′,13′-dioxide], the IC50 in experiment [1] was 0.136 nM; in experiment [2] it was 2120 nM.
As for `C[C@@H]1[C@@H](C)C/C=C/[C@H](OCC(=O)N2CCC(F)(F)CC2)[C@@H]2CC[C@H]2CN2C[C@@]3(CCCc4cc(Cl)ccc43)COc3ccc(cc32)C(=O)NS1(=O)=O` [Example 315, (1S,3′R,6′R,7′S,8′E,11′S,12′R)-6-chloro-7′-(2-(4,4-difluoro-1-piperidinyl)-2-oxoethoxy)-11′,12′-dimethyl-3,4-dihydro-2H,15′H-spiro[naphthalene-1,22′-[20]oxa[13]thia[1,14]diazatetracyclo[14.7.2.0^3,6.0^19,24]pentacosa [8,16,18,24]tetraen]-15′-one 13′,13′-dioxide], the IC50 in experiment [1] is 0.774 nM; in experiment [2], 421 nM.
For `C[C@@H]1[C@@H](C)C/C=C/[C@H](OCC(=O)N2CCN(C)CC2)[C@@H]2CC[C@H]2CN2C[C@@]3(CCCc4cc(Cl)ccc43)COc3ccc(cc32)C(=O)NS1(=O)=O` [Example 316, (1S,3′R,6′R,7′S,8′E,11′S,12′R)-6-chloro-11′,12′-dimethyl-7′-(2-(4-methyl-1-piperazinyl)-2-oxoethoxy)-3,4-dihydro-2H,15′H-spiro[naphthalene-1,22′-[20]oxa[13]thia[1,14]diazatetracyclo[14.7.2.0^3,6.0^19,24]pentacosa [8,16,18,24]tetraen]-15′-one 13′,13′-dioxide], in that order: 0.0986 nM and 162 nM.
